# Laboratory results as given in ChEMBL document CHEMBL6134832, “Expanding the utilization of binding pockets proves to be effective for noncovalent small molecule inhibitors against SARS-CoV-2 Mpro” (Eur J Med Chem, 2025).
# Experiments:
# SARS-CoV-2 [1] = assay: Antiviral activity against SARS-CoV-2 delta IM2175251 infected in African green monkey Vero E6 cells assessed as inhibition of virus induced cytopathic effect measured after 72 hrs by cytometric analysis; type: functional, organism-based; details: Severe acute respiratory syndrome coronavirus 2, delta IM2175251, Vero C1008, 72 h
# SARS-CoV-2 [2] = assay: Antiviral activity against SARS-CoV-2 EG.5 infected in African green monkey Vero E6 cells assessed as inhibition of virus induced cytopathic effect measured after 72 hrs by cytometric analysis; type: functional, organism-based; details: Severe acute respiratory syndrome coronavirus 2, EG.5, Vero C1008, 72 h
# [3] = Apparent permeability across apical to basolateral side in human Caco-2 cells
# [4] = Metabolic stability in mouse liver microsomes assessed as half life; type: ADME, Microsome
# [5] = Oral bioavailability in mouse; type: ADME, organism-based; details: in vivo
# SARS-CoV-2 [6] = assay: Antiviral activity against wild type SARS-CoV-2 infected in African green monkey Vero E6 cells assessed as inhibition of virus induced cytopathic effect measured after 72 hrs by cytometric analysis; type: functional, organism-based; details: Severe acute respiratory syndrome coronavirus 2, Vero C1008, 72 h
# CYP3A4/CYP3A5 = CYP3A4/CYP3A5 (Homo sapiens, UniProt P08684+P20815); assay: Inhibition of CYP3A4/CYP3A5 (unknown origin)
# [7] = Metabolic stability in human liver microsomes assessed as half life; type: ADME, Microsome
# [8] = Cytotoxicity against African green monkey Vero E6 cells assessed as cell viability measured after 72 hrs by Celltiter-glo luminescent cell viability assay; type: toxicity, cell-based, Vero C1008; details: chlorocebus sabaeus
# [9] = Apparent permeability across basolateral to apical side in human Caco-2 cells
# [10] = Half life in mouse at 10 mg/kg, po; type: ADME, organism-based; details: in vivo
# [11] = target: Voltage-gated inwardly rectifying potassium channel KCNH2 (Homo sapiens, UniProt Q12809)
# Chain of Voltage-gated inwardly rectifying potassium channel KCNH2 (Q12809 whole entry): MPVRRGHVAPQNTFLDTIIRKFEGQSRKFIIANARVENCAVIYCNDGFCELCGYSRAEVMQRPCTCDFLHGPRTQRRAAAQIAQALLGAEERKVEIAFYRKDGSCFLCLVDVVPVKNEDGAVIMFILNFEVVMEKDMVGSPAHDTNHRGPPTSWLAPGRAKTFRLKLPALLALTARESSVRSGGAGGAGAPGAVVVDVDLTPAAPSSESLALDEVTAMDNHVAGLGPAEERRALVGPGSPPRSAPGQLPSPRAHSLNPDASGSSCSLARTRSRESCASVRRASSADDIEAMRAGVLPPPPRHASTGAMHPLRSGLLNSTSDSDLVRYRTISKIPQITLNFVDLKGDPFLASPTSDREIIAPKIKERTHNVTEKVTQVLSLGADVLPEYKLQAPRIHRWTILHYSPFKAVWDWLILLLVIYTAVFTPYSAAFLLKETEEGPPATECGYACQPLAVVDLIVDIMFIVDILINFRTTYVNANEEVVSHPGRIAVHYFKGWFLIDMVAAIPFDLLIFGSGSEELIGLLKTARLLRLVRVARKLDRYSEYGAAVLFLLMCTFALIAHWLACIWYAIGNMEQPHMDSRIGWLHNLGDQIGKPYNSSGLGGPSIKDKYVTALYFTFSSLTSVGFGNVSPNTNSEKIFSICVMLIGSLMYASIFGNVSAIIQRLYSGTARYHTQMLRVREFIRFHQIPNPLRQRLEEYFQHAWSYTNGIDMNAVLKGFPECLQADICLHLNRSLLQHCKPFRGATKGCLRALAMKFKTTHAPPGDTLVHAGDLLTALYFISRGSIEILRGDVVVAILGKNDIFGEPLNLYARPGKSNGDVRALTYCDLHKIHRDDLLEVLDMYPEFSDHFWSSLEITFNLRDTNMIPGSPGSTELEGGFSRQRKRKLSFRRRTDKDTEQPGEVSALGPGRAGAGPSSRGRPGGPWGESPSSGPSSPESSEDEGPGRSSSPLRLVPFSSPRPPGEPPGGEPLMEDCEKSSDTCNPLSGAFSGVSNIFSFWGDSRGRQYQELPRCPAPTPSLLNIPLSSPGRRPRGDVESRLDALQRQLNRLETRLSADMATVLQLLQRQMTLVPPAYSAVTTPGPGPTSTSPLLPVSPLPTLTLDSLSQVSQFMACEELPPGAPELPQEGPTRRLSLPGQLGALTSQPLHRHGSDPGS
# [12] = Inhibition of full-length SARS-CoV-2 MPro expressed in Escherichia coli BL21 (DE3) using MCA-AVLQSGFR-Lys (Dnp)-Lys-NH2 as substrate pre-incubated for 30 mins followed by substrate addition and measured after 20 mins by FRET assay; parameters: species or system Severe acute respiratory syndrome coronavirus 2
# [13] = Half life in mouse at 1 mg/kg, iv; type: ADME, organism-based; details: in vivo
# [14] = AUC in po dosed mouse; type: ADME, organism-based; details: in vivo
# SARS-CoV-2 [15] = assay: Antiviral activity against SARS-CoV-2 XBB.1 infected in African green monkey Vero E6 cells assessed as inhibition of virus induced cytopathic effect measured after 72 hrs by cytometric analysis; type: functional, organism-based; details: Severe acute respiratory syndrome coronavirus 2, XBB.1, Vero C1008, 72 h
# SARS-CoV-2 [16] = assay: Antiviral activity against SARS-CoV-2 Omicron BA.5 infected in African green monkey Vero E6 cells assessed as inhibition of virus induced cytopathic effect measured after 72 hrs by cytometric analysis; type: functional, organism-based; details: Severe acute respiratory syndrome coronavirus 2, Omicron BA.5, Vero C1008, 72 h
smiles,measurement,setting,value
Cc1cncc(-n2c(=O)[nH]/c(=N\c3cc4cn(C)nc4cc3Cl)n(Cc3cc(Cl)c(F)cc3Oc3ccc(C#N)c(F)c3)c2=O)c1,EC50,SARS-CoV-2 [1],99.3 nM
same,EC50,SARS-CoV-2 [2],31.6 nM
same,Papp A→B,[3],0.2 ×10⁻⁶ cm/s
same,half-life,[4],0.892 h
same,bioavailability,[5],115%
same,EC50,SARS-CoV-2 [6],54 nM
same,IC50,CYP3A4/CYP3A5,11300 nM
same,half-life,[7],2.02 h
same,CC50 at 72 h,[8],> 100000 nM
same,Papp B→A,[9],2.8 ×10⁻⁶ cm/s
same,half-life,[10],1.7 h
same,IC50,[11],8750 nM
same,IC50,[12],9.1 nM
same,half-life,[13],2.2 h
same,AUC,[14],5620 ng·h/mL
same,EC50,SARS-CoV-2 [15],33.4 nM
same,EC50,SARS-CoV-2 [16],11.1 nM
COc1cncc(-n2c(=O)[nH]/c(=N\c3cc4cn(C)nc4cc3Cl)n(Cc3cc(F)c(F)cc3F)c2=O)c1,CC50 at 72 h,[8],> 100000 nM
same,IC50,[12],52.9 nM
COCCOc1cncc(-n2c(=O)[nH]/c(=N\c3cc4cn(C)nc4cc3Cl)n(Cc3cc(Cl)c(F)cc3F)c2=O)c1,EC50,SARS-CoV-2 [1],45.9 nM
same,EC50,SARS-CoV-2 [2],54.1 nM
same,Papp A→B,[3],2.92 ×10⁻⁶ cm/s
same,half-life,[4],1.28 h
same,bioavailability,[5],101%
same,EC50,SARS-CoV-2 [6],68.9 nM
same,IC50,CYP3A4/CYP3A5,> 50000 nM
same,half-life,[7],1.42 h
same,CC50 at 72 h,[8],> 100000 nM
same,Papp B→A,[9],29.2 ×10⁻⁶ cm/s
same,half-life,[10],2.2 h
same,IC50,[11],> 30000 nM
same,IC50,[12],18.3 nM
same,half-life,[13],1.7 h
same,AUC,[14],39500 ng·h/mL
same,EC50,SARS-CoV-2 [15],33.5 nM
same,EC50,SARS-CoV-2 [16],35.6 nM
Cc1cncc(-n2c(=O)[nH]/c(=N\c3cc4cn(C)nc4cc3Cl)n(Cc3cc(Cl)c(F)c(Oc4ccc(F)cc4)c3)c2=O)c1,EC50,SARS-CoV-2 [1],734 nM
same,EC50,SARS-CoV-2 [2],858 nM
same,bioavailability,[5],129%
same,EC50,SARS-CoV-2 [6],858 nM
same,IC50,CYP3A4/CYP3A5,48200 nM
same,CC50 at 72 h,[8],> 100000 nM
same,half-life,[10],6.8 h
same,IC50,[11],> 30000 nM
same,IC50,[12],37.4 nM
same,half-life,[13],6 h
same,AUC,[14],333000 ng·h/mL
same,EC50,SARS-CoV-2 [15],707 nM
same,EC50,SARS-CoV-2 [16],790 nM
Cc1cncc(-n2c(=O)[nH]/c(=N\c3cc4cn(C)nc4cc3Cl)n(Cc3cc(Cl)c(F)cc3Sc3cccc(F)c3)c2=O)c1,EC50,SARS-CoV-2 [1],326 nM
same,EC50,SARS-CoV-2 [2],337 nM
same,Papp A→B,[3],1.56 ×10⁻⁶ cm/s
same,half-life,[4],2.3 h
same,bioavailability,[5],60.5%
same,EC50,SARS-CoV-2 [6],365 nM
same,IC50,CYP3A4/CYP3A5,30700 nM
same,half-life,[7],1.43 h
same,CC50 at 72 h,[8],> 100000 nM
same,Papp B→A,[9],3.38 ×10⁻⁶ cm/s
same,half-life,[10],6 h
same,IC50,[11],> 30000 nM
same,IC50,[12],11.8 nM
same,half-life,[13],6 h
same,AUC,[14],30000 ng·h/mL
same,EC50,SARS-CoV-2 [15],336 nM
same,EC50,SARS-CoV-2 [16],180 nM
Cn1cc2cc(/N=c3\[nH]c(=O)n(-c4cncc(O[C@H]5CCOC5)c4)c(=O)n3Cc3cc(Cl)c(F)cc3F)c(Cl)cc2n1,EC50,SARS-CoV-2 [1],27 nM
same,EC50,SARS-CoV-2 [2],8.2 nM
same,Papp A→B,[3],1.36 ×10⁻⁶ cm/s
same,half-life,[4],3.85 h
same,bioavailability,[5],87%
same,EC50,SARS-CoV-2 [6],9.4 nM
same,IC50,CYP3A4/CYP3A5,> 50000 nM
same,half-life,[7],1.72 h
same,CC50 at 72 h,[8],> 100000 nM
same,Papp B→A,[9],32.7 ×10⁻⁶ cm/s
same,half-life,[10],2 h
same,IC50,[11],> 30000 nM
same,IC50,[12],13.5 nM
same,half-life,[13],1.6 h
same,AUC,[14],37400 ng·h/mL
same,EC50,SARS-CoV-2 [15],21.9 nM
same,EC50,SARS-CoV-2 [16],20.6 nM
COCCOc1cncc(-n2c(=O)[nH]/c(=N\c3cc4cn(C)nc4cc3Cl)n(Cc3cc(C#N)ccc3C)c2=O)c1,EC50,SARS-CoV-2 [1],43 nM
same,EC50,SARS-CoV-2 [2],13.7 nM
same,Papp A→B,[3],1.57 ×10⁻⁶ cm/s
same,half-life,[4],4.89 h
same,bioavailability,[5],44.1%
same,EC50,SARS-CoV-2 [6],31.1 nM
same,IC50,CYP3A4/CYP3A5,> 50000 nM
same,half-life,[7],5.92 h
same,CC50 at 72 h,[8],> 100000 nM
same,Papp B→A,[9],24.1 ×10⁻⁶ cm/s
same,half-life,[10],2.8 h
same,IC50,[11],> 30000 nM
same,IC50,[12],19.4 nM
same,half-life,[13],1.2 h
same,AUC,[14],9220 ng·h/mL
same,EC50,SARS-CoV-2 [15],13.7 nM
same,EC50,SARS-CoV-2 [16],6.8 nM
COc1cncc(-n2c(=O)[nH]/c(=N\c3cc4cn(C)nc4cc3Cl)n(Cc3cc(Cl)c(F)cc3Oc3ccc(F)cc3)c2=O)c1,EC50,SARS-CoV-2 [1],364 nM
same,EC50,SARS-CoV-2 [2],82.2 nM
same,Papp A→B,[3],0.11 ×10⁻⁶ cm/s
same,half-life,[4],1.59 h
same,bioavailability,[5],98%
same,EC50,SARS-CoV-2 [6],241 nM
same,IC50,CYP3A4/CYP3A5,6870 nM
same,half-life,[7],1.99 h
same,CC50 at 72 h,[8],> 100000 nM
same,Papp B→A,[9],0.94 ×10⁻⁶ cm/s
same,half-life,[10],5.1 h
same,IC50,[11],16000 nM
same,IC50,[12],50.6 nM
same,half-life,[13],4.6 h
same,AUC,[14],46700 ng·h/mL
same,EC50,SARS-CoV-2 [15],241 nM
same,EC50,SARS-CoV-2 [16],303 nM
Cc1cncc(-n2c(=O)[nH]/c(=N\c3cc4cn(C)nc4cc3Cl)n(Cc3cc(C#N)ccc3Sc3ccc(Cl)s3)c2=O)c1,EC50,SARS-CoV-2 [1],65.3 nM
same,EC50,SARS-CoV-2 [2],63.6 nM
same,bioavailability,[5],93%
same,EC50,SARS-CoV-2 [6],76.3 nM
same,CC50 at 72 h,[8],> 100000 nM
same,half-life,[10],2.73 h
same,IC50,[12],12.3 nM
same,half-life,[13],2.48 h
same,AUC,[14],61400 ng·h/mL
same,EC50,SARS-CoV-2 [15],57.9 nM
same,EC50,SARS-CoV-2 [16],21.8 nM
Cn1cc2cc(/N=c3\[nH]c(=O)n(-c4cncc(O[C@H]5CCOC5)c4)c(=O)n3Cc3cc(F)c(F)cc3F)c(Cl)cc2n1,EC50,SARS-CoV-2 [1],36.8 nM
same,EC50,SARS-CoV-2 [2],33.8 nM
same,half-life,[4],4.19 h
same,bioavailability,[5],108%
same,EC50,SARS-CoV-2 [6],33.8 nM
same,half-life,[7],2.34 h
same,CC50 at 72 h,[8],> 100000 nM
same,half-life,[10],1.9 h
same,half-life,[13],1.5 h
same,AUC,[14],25600 ng·h/mL
same,EC50,SARS-CoV-2 [15],69.9 nM
same,EC50,SARS-CoV-2 [16],34 nM
